For 4 compounds, Activity results are on record in ChEMBL document CHEMBL3286374, “Muchimangins G-J, fully substituted xanthones with a diphenylmethyl substituent, from Securidaca longepedunculata” (J Nat Prod, 2014).

The test system of assay [1] is PANC-1. Briefly: Cytotoxicity against human PANC1 cells in nutrient-rich DMEM media by WST8 assay. Format: functional, cell-based.
Assay [2] concerns PANC-1. Description: Cytotoxicity against human PANC1 cells in nutrient-deprived NDM media by WST8 assay. Format: functional, cell-based.

Activity calls are given as the source filed them. The calls are words filed in the database; no cut-off is given here.

In the case of `COc1cc(OC)c(C(c2ccccc2)c2c(O)c(OC)c3oc4c(OC)c(O)c(OC)c(O)c4c(=O)c3c2O)cc1OC` (stereo not drawn), the outcome in assay [1] and in assay [2] was inactive.

For `COc1cc(OC)c(C(c2ccccc2)c2c(O)c(OC)c3oc4c(OC)c(OC)c(OC)c(O)c4c(=O)c3c2O)cc1OC` (stereo not drawn), the outcome in assay [1] and in assay [2] was inactive.

Regarding `COc1cc(OC)c(C(c2ccccc2)c2c(O)c(OC)c3oc4c(O)c(OC)c(OC)c(OC)c4c(=O)c3c2O)cc1OC` (stereo not drawn), the outcome in assay [1] and in assay [2] was inactive.

For `COc1cc(OC)c(C(c2ccccc2)c2c(O)c(OC)c3oc4c(OC)c5c(c(OC)c4c(=O)c3c2O)OCO5)cc1OC` (stereo not drawn), the result in assay [1] and in assay [2] was inactive.
